The conditions of data set [1]: cited from earlier work.
For data set [2], the system named is hyperlipidemia rats. Kind of data set: Liver and kidney indexes in high-fat diet hyperlipidemia rats. The format is in vivo, SD rats. To be noted: 20 mg/(kg d) by gastric gavage, 4 weeks, x ± s, n = 9. From the text:
(§1) Animals: 54 SPF-grade SD rats, weighing 120±10 g, provided by Laboratory Animal Business Department, Shanghai Family Planning Research Institute, China, Animal license number: SCXK(Shanghai)2018-0006.
(§2) Modeling scheme: 54 adult rats of 120±10 g were selected and fed adaptively for three days. They were then randomly divided to 6 groups, 9 animals for each group. They were blank control group, model group, positive control group, nuciferine group, and nuciferine structural modification group. The blank control group was fed with normal diet. […] The feeding and modeling time was 5 weeks.
(§3) Liver tissue sample collection: the rats were killed by dislocation, and the liver was taken out immediately after death, which was observed by naked eye to find out whether there was abnormal color and lesions, and was then rinsed with ice normal saline. The left lobe of the liver was quickly cut into small pieces and fixed in 10% formaldehyde overnight for sectioning. The tissue of the right lobe of the liver was quickly wrapped in tin box and stored at −80° C. for later use.

For data set [3], the system named is hyperlipidemia rats. Kind of data set: Serum biochemical indicators in high-fat diet hyperlipidemia rats. Type of data set: in vivo, SD rats. The settings on record: serum, 20 mg/(kg d) by gastric gavage, 4 weeks; for ALT (U/L) / AST (U/L) / Bun / Cr: x ± s, n = 9.
Source text: as §1
(§4) Drug to be tested: Nuciferine purchased from Shanghai Aladdin Biochemical Technology Co., Ltd., China, and its derivatives (purity >99%) that were synthesized in the laboratory by the methods of Examples 2-7.
(§5) Other reagents: AST, ALT, TC, TG, NEFA, Bun, Cr, CAT, GSH-Px, GSH, MDA test kits, purchased from Nanjing Jiancheng Bioengineering Institute, China; HL and PL test kits, purchased from Jianglai Biotechnology Co., Ltd., China; experimental reagents such as anhydrous ethanol, xylene, isopropanol neutral gum, purchased from Sinopharm Chemical Reagent Co., Ltd., China; HE dye solution, DAB color development agent, and oil red O dye solution, purchased from KeyGEN Biotechnology Co., Ltd, China; Antibodies IL-6 and TNF-α, purchased from Abcam Limited.
as §2, with “weeks. Within 4 weeks after modeling, continuous administration was performed: the blank control group and model group were given 0.2 mL of distilled water by gastric gavage; the positive control group was administrated 20 mg/(kg d) of simvastatin; while the treatment group was administrated 20 mg/(kg d) of nuciferine or 20 mg/(kg d) of a derivative of nuciferine (compounds 6a-6f).” for “weeks.”
Blood sample collection: 24 h after the last gastric gavage administration, eyeballs were taken out and blood was drawn. Whole blood was collected in an EP tube, and centrifuged at 3000 r/min and 4° C. for 10 min, and the supernatant was collected and stored at −20° C. for blood biochemical indicator test.
(§6) Biochemical indicator determination: indicators AST, ALT, TC, TG, NEFA, Bun, Cr, CAT, GSH-Px, GSH, MDA, HL, PL were determined according to the instructions of the kits.

For data set [4], the system named is hyperlipidemia rats. Kind of data set: Liver tissue homogenate biochemical indicators in high-fat diet hyperlipidemia rats. Type of data set: in vivo, SD rats. The settings on record: liver tissue, 20 mg/(kg d) by gastric gavage, 4 weeks, x ± s, n = 9.
Source text: as §1, §4, §5
as §2, with “weeks. Within 4 weeks after modeling, continuous administration was performed: the blank control group and model group were given 0.2 mL of distilled water by gastric gavage; the positive control group was administrated 20 mg/(kg d) of simvastatin; while the treatment group was administrated 20 mg/(kg d) of nuciferine or 20 mg/(kg d) of a derivative of nuciferine (compounds 6a-6f).” for “weeks.”
as §3
Preparation of 10% liver homogenate: the liver wrapped in tin box and stored in the ultra-low temperature freezer at −80° C. was taken out, and quickly placed on an ice box. 0.2 g of liver tissue was accurately taken, and ice normal saline with a volume 9 times that of the liver issue was added thereto. 10% tissue homogenate was formed by grounding and mixing, and then centrifuged at 3000 r/min and 4° C. for 10 min. The supernatant was collected for later use.
as §6

The mark [5] stands for this setting: TCMSP database, screening threshold OB ≥30%.

Where two headings read alike, the source gives them in different places.

Turning to (−)-catechin, in data set [1] (po), the “OB/% (oral bioavailability)” value is reported as 49.68%.
In the case of o-Nornuciferine, the “OB/% (oral bioavailability)” value in data set [1] (setting [5]) is 33.52%.
As for `Oc1cc(O)c2c(c1)O[C@@H](c1cc(O)c(O)c(O)c1)[C@@H](O)[C@@H]2O` [leucodelphinidin], the “OB/% (oral bioavailability)” value in data set [1] (setting [5]) is 30.02%.
On to `COc1cc2c3c(c1OC)-c1ccccc1CC3N(C(C)=O)CC2` (stereo not drawn) [Compound 6f, Acetylnuciferine], for which, in data set [2], the “Kidney index (%)” value is recorded as 0.68 ± 0.03 % and the “Liver index (%)” value was determined as 4.58 ± 0.25 %. In data set [3], the “LDL-C” value amounted to 0.69 ± 0.16 mmol/L, the “TC” value turned out to be 2.02 ± 0.16 mmol/L, the “TG” value was 0.58 ± 0.07 mmol/L and the “ALT (U/L)” value is 16.73 ± 9.74 U/L. Also, in data set [3], the “AST (U/L)” value was 7.74 ± 2.22 U/L, the “Bun” value amounted to 3.62 ± 0.15 mmol/L and the “Cr” value came out at 52.82 ± 4.36 µmol/L. Besides, in data set [4], the “CAT (U/mgprot)” value is 27.42 ± 2.82 U/mgprot, the “GSH (μmol/gprot)” value came out at 361.04 ± 43.65 μmol/gprot, the “GSH-Px (U/mgprot)” value is given as 560.90 ± 62.45 U/mgprot and the “HL (U/mgprot)” value is recorded as 0.56 ± 0.06 U/mgprot. Besides, in data set [4], the “LPL (U/mgprot)” value is on record as 0.26 ± 0.08 U/mgprot, the “MDA (nmol/mgprot)” value amounted to 0.98 ± 0.56 nmol/mgprot, the “NEFA (μmol/g prot)” value was determined as 106.32 ± 22.95 μmol/g prot and the “TG (mmol/g prot)” value came to 0.13 ± 0.02 mmol/g prot.
`COc1cc(-c2oc3cc(O)cc(O)c3c(=O)c2O)ccc1O` [isorhamnetin]: the “OB/% (oral bioavailability)” value in data set [1] (setting [5]) is reported as 49.6%.
As for `CN1CCc2cc3c(c4c2C1Cc1ccccc1-4)OCO3` (stereo not drawn) [Remerin], the “OB/% (oral bioavailability)” value in data set [1] (setting [5]) was 40.75%.
As to `CN1CCc2cc(O)c(O)cc2[C@@H]1Cc1ccc(O)cc1` [(1S)-1-(4-hydroxybenzyl)-2-methyl-3,4-dihydro-1H-isoquinoline-6,7-diol], the “OB/% (oral bioavailability)” value in data set [1] (setting [5]) is 67.14%.
In the case of `COc1ccc(C(=O)N2CCc3cc(OC)c(OC)c4c3C2Cc2ccccc2-4)cc1` (stereo not drawn) [Compound 6e, p-Methoxybenzoylnuciferine], in data set [2], the “Kidney index (%)” value is on record as 0.68 ± 0.05 % and the “Liver index (%)” value turned out to be 4.58 ± 0.27 %. In addition, in data set [3], the “LDL-C” value came to 0.56 ± 0.08 mmol/L, the “TC” value is reported as 1.95 ± 0.13 mmol/L, the “TG” value came out at 0.55 ± 0.05 mmol/L and the “ALT (U/L)” value is listed as 15.54 ± 8.69 U/L. In data set [3], the “AST (U/L)” value stood at 7.65 ± 2.26 U/L, the “Bun” value was found to be 3.43 ± 0.27 mmol/L and the “Cr” value was determined as 52.90 ± 2.21 µmol/L. In data set [4], the “CAT (U/mgprot)” value was determined as 26.34 ± 4.54 U/mgprot, the “GSH (μmol/gprot)” value amounted to 363.09 ± 71.72 μmol/gprot, the “GSH-Px (U/mgprot)” value stood at 537.18 ± 34.93 U/mgprot and the “HL (U/mgprot)” value came out at 0.37 ± 0.07 U/mgprot. In addition, in data set [4], the “LPL (U/mgprot)” value came out at 0.28 ± 0.04 U/mgprot, the “MDA (nmol/mgprot)” value is 1.02 ± 0.73 nmol/mgprot, the “NEFA (μmol/g prot)” value amounted to 107.69 ± 6.44 μmol/g prot and the “TG (mmol/g prot)” value turned out to be 0.10 ± 0.02 mmol/g prot.
Take `CCC(C)(C)C(=O)O[C@H]1C[C@@H](C)C=C2C=C[C@H](C)[C@H](CC[C@@H]3C[C@@H](O)CC(=O)O3)[C@H]21` [Simvastatin, simvastatin, reference compound]: in data set [2], the “Kidney index (%)” value is listed as 0.68 ± 0.03 % and the “Liver index (%)” value worked out at 4.47 ± 0.36 %. Besides, in data set [3], the “LDL-C” value was determined as 0.62 ± 0.17 mmol/L, the “TC” value stood at 2.00 ± 0.19 mmol/L, the “TG” value is 0.47 ± 0.05 mmol/L and the “ALT (U/L)” value was found to be 13.74 ± 4.06 U/L. In data set [3], the “AST (U/L)” value worked out at 7.57 ± 1.78 U/L, the “Bun” value turned out to be 3.98 ± 0.43 mmol/L and the “Cr” value was 53.79 ± 7.58 µmol/L. For the same molecule, in data set [4], the “CAT (U/mgprot)” value was 29.35 ± 7.00 U/mgprot, the “GSH (μmol/gprot)” value was found to be 341.36 ± 98.66 μmol/gprot, the “GSH-Px (U/mgprot)” value is given as 708.02 ± 47.00 U/mgprot and the “HL (U/mgprot)” value came to 0.45 ± 0.11 U/mgprot. In data set [4], the “LPL (U/mgprot)” value is listed as 0.50 ± 0.06 U/mgprot, the “MDA (nmol/mgprot)” value is 0.84 ± 0.19 nmol/mgprot, the “NEFA (μmol/g prot)” value turned out to be 103.22 ± 8.89 μmol/g prot and the “TG (mmol/g prot)” value is given as 0.09 ± 0.01 mmol/g prot.
In the case of `COc1cc2c(cc1O)C(Cc1ccc(O)cc1)NCC2` (stereo not drawn) [Machiline], in data set [1] (setting [5]), the “OB/% (oral bioavailability)” value is 79.64%.
On to `CC(C)=CCC[C@@H](C)[C@H]1CC[C@@]2(C)[C@@H]3CC[C@H]4C(C)(C)[C@@H](O)CC[C@@]45C[C@@]35CC[C@]12C` [Cycloartenol], for which the “OB/% (oral bioavailability)” value in data set [1] (setting [5]) was 38.69%.
With `COc1cc2c(cc1OC)C(Cc1ccc(O)cc1)N(C)CC2` (stereo not drawn) [Armepavine], the “OB/% (oral bioavailability)” value in data set [1] (setting [5]) is listed as 69.31%.
Consider `COc1cc2c3c(c1OC)-c1ccccc1CC3N(C(=O)c1ccccc1C)CC2` (stereo not drawn) [Compound 6d, o-Methylbenzoylnuciferine], for which, in data set [2], the “Kidney index (%)” value is 0.68 ± 0.04 % and the “Liver index (%)” value is given as 4.58 ± 0.24 %. In data set [3], the “LDL-C” value was found to be 0.68 ± 0.15 mmol/L, the “TC” value is recorded as 2.03 ± 0.09 mmol/L, the “TG” value came out at 0.57 ± 0.07 mmol/L and the “ALT (U/L)” value was 15.62 ± 9.43 U/L. For the same molecule, in data set [3], the “AST (U/L)” value was determined as 7.78 ± 2.27 U/L, the “Bun” value is on record as 3.56 ± 0.19 mmol/L and the “Cr” value was 53.82 ± 6.13 µmol/L. Moreover, in data set [4], the “CAT (U/mgprot)” value amounted to 25.78 ± 2.67 U/mgprot, the “GSH (μmol/gprot)” value was 360.02 ± 43.63 μmol/gprot, the “GSH-Px (U/mgprot)” value stood at 562.93 ± 68.91 U/mgprot and the “HL (U/mgprot)” value worked out at 0.37 ± 0.08 U/mgprot. Besides, in data set [4], the “LPL (U/mgprot)” value stood at 0.42 ± 0.06 U/mgprot, the “MDA (nmol/mgprot)” value is reported as 0.95 ± 0.48 nmol/mgprot, the “NEFA (μmol/g prot)” value was determined as 106.32 ± 22.95 μmol/g prot and the “TG (mmol/g prot)” value was 0.13 ± 0.02 mmol/g prot.
`Oc1cc(O)c2c(c1)O[C@@H](c1ccc(O)c(O)c1)[C@@H](O)C2` [ent-Epicatechin]: the “OB/% (oral bioavailability)” value in data set [1] (po) is given as 48.96%.
For the molecule `COc1cc2c3c(c1OC)-c1ccccc1CC3N(C(=O)c1ccc(C)cc1)CC2` (stereo not drawn) [Compound 6c, p-Methylbenzoylnuciferine], in data set [2], the “Kidney index (%)” value stood at 0.68 ± 0.03 % and the “Liver index (%)” value was found to be 4.58 ± 0.26 %. For the same molecule, in data set [3], the “LDL-C” value is listed as 0.54 ± 0.08 mmol/L, the “TC” value turned out to be 1.93 ± 0.16 mmol/L, the “TG” value was determined as 0.56 ± 0.07 mmol/L and the “ALT (U/L)” value stood at 16.44 ± 8.69 U/L. In data set [3], the “AST (U/L)” value is reported as 7.86 ± 2.24 U/L, the “Bun” value is on record as 3.45 ± 0.51 mmol/L and the “Cr” value was found to be 51.39 ± 5.83 µmol/L. For the same molecule, in data set [4], the “CAT (U/mgprot)” value was 27.43 ± 3.14 U/mgprot, the “GSH (μmol/gprot)” value is on record as 374.63 ± 137.14 μmol/gprot, the “GSH-Px (U/mgprot)” value stood at 567.63 ± 51.57 U/mgprot and the “HL (U/mgprot)” value is 0.44 ± 0.78 U/mgprot. Moreover, in data set [4], the “LPL (U/mgprot)” value came out at 0.50 ± 0.07 U/mgprot, the “MDA (nmol/mgprot)” value came out at 0.94 ± 0.38 nmol/mgprot, the “NEFA (μmol/g prot)” value is on record as 107.69 ± 6.44 μmol/g prot and the “TG (mmol/g prot)” value was found to be 0.10 ± 0.02 mmol/g prot.
As for `Oc1cc(O)c2c(c1)OC(c1ccc(O)c(O)c1)C(O)C2O` (single isomer, unassigned; (+)) [(+)-Leucocyanidin], in data set [1] (setting [5]), the “OB/% (oral bioavailability)” value is 37.61%.

Values taken from patent publication US20250197356A1, “METHOD FOR SYNTHESIZING NUCIFERINE OR DERIVATIVE THEREOF, DERIVATIVE OF NUCIFERINE AND USE THEREOF” (HUAQIAO UNIVERSITY, priority 2022, published 2025).
